From ChEMBL document CHEMBL3352061, “Novel amino-β-lactam derivatives as potent cholesterol absorption inhibitors” (Eur J Med Chem, 2014)

Columns and labels:
[1] = Inhibition of cholesterol uptake in MDCK2 cells expressing human NPC1L1 after 1 hr by liquid scintillation counting; format: cell-based; settings: Canis lupus familiaris, MDCK-II
[2] = Inhibition of cholesterol uptake in MDCK2 cells at 20 to 100 uM after 1 hr by liquid scintillation counting; format: cell-based, Canis lupus familiaris; settings: dog, mdck-ii
[3] = Inhibition of cholesterol uptake in MDCK2 cells expressing human NPC1L1 at 20 to 100 uM after 1 hr by liquid scintillation counting; format: cell-based, Canis lupus familiaris; settings: dog, mdck-ii

SMILES | IC50 [1] [µM] | inhibition (INH) [2] | inhibition (INH) [3]
O=C1[C@H](NC[C@H](O)c2ccc(F)cc2)[C@@H](c2ccc(O)cc2)N1c1ccc(F)cc1 | 80 |  | 
O=C1[C@H](NC[C@@H](O)c2ccc(F)cc2)[C@@H](c2ccc(O)cc2)N1c1ccc(F)cc1 | 60 |  | 
O=C1[C@H](CC[C@H](O)c2ccc(F)cc2)[C@@H](c2ccc(O)cc2)N1c1ccc(F)cc1 [EZETIMIBE] |  | Not Active | Active
